Test results: ChEMBL document CHEMBL4004873, “SAR of amino pyrrolidines as potent and novel protein-protein interaction inhibitors of the PRC2 complex through EED binding” (Bioorg Med Chem Lett, 2017)
Each block holds one molecule with its values, some of them ahead of it.

Experiments:
Polycomb protein EED [1] = molecular target: T1, Polycomb protein EED (Homo sapiens, UniProt O75530); assay: Inhibition of OG(488) labeled probe binding to GST-tagged EED (unknown origin) after 1 hr by LanthaScreen TR-FRET assay
T1 sequence (O75530 whole entry): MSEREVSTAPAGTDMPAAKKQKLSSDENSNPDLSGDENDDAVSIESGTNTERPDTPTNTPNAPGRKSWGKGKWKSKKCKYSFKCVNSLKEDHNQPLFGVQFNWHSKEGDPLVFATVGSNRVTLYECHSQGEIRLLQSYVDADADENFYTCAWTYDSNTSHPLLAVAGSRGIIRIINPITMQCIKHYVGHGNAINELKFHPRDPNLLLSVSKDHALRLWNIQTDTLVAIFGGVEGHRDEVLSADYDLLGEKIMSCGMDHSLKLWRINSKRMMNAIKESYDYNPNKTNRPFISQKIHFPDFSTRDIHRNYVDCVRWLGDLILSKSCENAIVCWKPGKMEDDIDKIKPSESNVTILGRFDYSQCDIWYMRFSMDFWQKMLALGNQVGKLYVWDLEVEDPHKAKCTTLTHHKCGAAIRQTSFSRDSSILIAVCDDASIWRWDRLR

[2] = Intrinsic clearance in mouse liver microsomes at 0.5 uM by HPLC-MS/MS method; type: ADME, microsome; details: read-out: CLH
Polycomb protein EED [3] = molecular target: T1, Polycomb protein EED; assay: Inhibition of EED in human G401 cells assessed as reduction in H3K27 trymethylation measured after 6 days by alphaLISA method; type: cell-based
Polycomb protein EED [4] = molecular target: T1, Polycomb protein EED; assay: Inhibition of EED in human OCILY19 cells assessed as reduction in H3K27 trymethylation measured after 6 days by alphaLISA method; type: cell-based
Pfeiffer = assay: Antiproliferative activity against human Pfeiffer cells after 10 days by celltiter-glo luminescent cell viability Assay; type: functional, cell-based; details: 240 h
[5] = Permeability of the compound by PAMPA; type: physicochemical; details: read-out: permeability
Liver = assay: Unbound intrinsic clearance in mouse liver microsomes at 0.5 uM by HPLC-MS/MS method; type: ADME, microsome

Ki (Polycomb protein EED [1]): 129 nM
CLint scaled at 0.5 µM [2]: > 1000 L/h/kg
Structure (SMILES): CN(C)[C@H]1CN([C@@H]2CCc3cccc(F)c32)C[C@@H]1c1cn(C)c2ccccc12

Ki (Polycomb protein EED [1]): 23 nM
Structure (SMILES): CN(C)C(=O)c1cccc2c([C@H]3CN(Cc4c(F)cccc4Br)C[C@@H]3N(C)C)cn(C)c12

Ki (Polycomb protein EED [1]): 11 nM
IC50 (Polycomb protein EED [3]): 290 nM
IC50 (Polycomb protein EED [4]): 660 nM
Papp [5]: 1 to 3 ×10⁻⁶ cm/s
CLint scaled at 0.5 µM [2]: > 1000 L/h/kg
Structure (SMILES): CN(C)[C@H]1CN([C@H]2CCc3cccc(F)c32)C[C@@H]1c1cn(C)c2ccccc12
IC50 (Pfeiffer): 1100 nM

Ki (Polycomb protein EED [1]): 12 nM
IC50 (Polycomb protein EED [3]): 2400 nM
IC50 (Polycomb protein EED [4]): 2400 nM
Papp [5]: 1 to 3 ×10⁻⁶ cm/s
CLint scaled at 0.5 µM [2]: > 1000 L/h/kg
Structure (SMILES): Cc1cccc(F)c1CN1C[C@H](c2cn(C)c3ccccc23)[C@@H](N(C)C)C1
IC50 (Pfeiffer): 3300 nM

Ki (Polycomb protein EED [1]): 610 nM
Structure (SMILES): CN(C)[C@H]1CN([C@H]2COc3cccc(F)c32)C[C@@H]1c1cn(C)c2ccccc12

Ki (Polycomb protein EED [1]): 0.29 nM
IC50 (Polycomb protein EED [3]): 33 nM
IC50 (Polycomb protein EED [4]): 50 nM
CL free (Liver): 220 L/h/kg
Structure (SMILES): CC(=O)N1CCN(c2ccc([C@H]3CN(C4CCc5cccc(F)c54)C[C@@H]3N(C)C)cc2)CC1 (mixture of isomers)
IC50 (Pfeiffer): 33 nM

Structure (SMILES): Cc1cccc(F)c1CN1C[C@H](c2cn(C)c3c(N4CCN(C)C(=O)C4)cccc23)[C@@H](N(C)C)C1 (mixture of isomers)
Ki (Polycomb protein EED [1]): 0.74 nM
IC50 (Polycomb protein EED [3]): 190 nM
IC50 (Polycomb protein EED [4]): 100 nM
IC50 (Pfeiffer): 98 nM

Ki (Polycomb protein EED [1]): 0.45 nM
IC50 (Polycomb protein EED [3]): 230 nM
IC50 (Polycomb protein EED [4]): 280 nM
CL free (Liver): 120 L/h/kg
Structure (SMILES): CN(C)[C@H]1CN(C2CCc3cccc(F)c32)C[C@@H]1C1CCN(c2ccc(C(N)=O)cn2)CC1 (mixture of isomers)
IC50 (Pfeiffer): 130 nM

Structure (SMILES): Cc1cccc(F)c1CN1C[C@H](c2cn(C)c3c(C(=O)N4CC(F)C4)cccc23)[C@@H](N(C)C)C1 (mixture of isomers)
Ki (Polycomb protein EED [1]): 1 nM
IC50 (Polycomb protein EED [3]): 31 nM
IC50 (Polycomb protein EED [4]): 180 nM
IC50 (Pfeiffer): 65 nM
CL free (Liver): 1100 L/h/kg

Ki (Polycomb protein EED [1]): 2.1 nM
CL free (Liver): 9900 L/h/kg
Structure (SMILES): Cc1cccc(F)c1CN1C[C@H](c2ccc(N3CCN(c4ccccn4)CC3)cc2)[C@@H](N(C)C)C1 (racemic)

Ki (Polycomb protein EED [1]): > 50000 nM
Structure (SMILES): CN(C)[C@H]1CN(Cc2nccn2C)C[C@@H]1c1cn(C)c2ccccc12 (racemic)

Ki (Polycomb protein EED [1]): 49 nM
Structure (SMILES): CN(C)[C@H]1CN(Cc2c(F)cccc2Br)C[C@@H]1c1ccncc1 (racemic)

Ki (Polycomb protein EED [1]): 2.6 nM
CL free (Liver): 225 L/h/kg
Structure (SMILES): Cc1cccc(F)c1CN1C[C@H](c2ccc(-c3cnn(CC(N)=O)c3)cc2)[C@@H](N(C)C)C1 (racemic)

Ki (Polycomb protein EED [1]): 4.6 nM
CL free (Liver): 268 L/h/kg
Structure (SMILES): Cc1cccc(F)c1CN1C[C@H](c2ccc(C3=CCN(C(=O)CS(C)(=O)=O)CC3)nc2)[C@@H](N(C)C)C1 (racemic)

Ki (Polycomb protein EED [1]): 0.65 nM
Structure (SMILES): Cc1cccc(F)c1CN1C[C@H](C2CCN(c3cnc(C(N)=O)cn3)CC2)[C@@H](N(C)C)C1 (racemic)

Ki (Polycomb protein EED [1]): 260 nM
Structure (SMILES): CN(C)[C@H]1CN([C@H]2CCc3ncccc32)C[C@@H]1c1cn(C)c2ccccc12 (racemic)

CLint scaled at 0.5 µM [2]: > 1000 L/h/kg
Structure (SMILES): COc1ccccc1CN1C[C@H](c2cn(C)c3ccccc23)[C@@H](N(C)C)C1 (racemic)

Ki (Polycomb protein EED [1]): 13 nM
IC50 (Polycomb protein EED [3]): 4100 nM
IC50 (Polycomb protein EED [4]): 8300 nM
Papp [5]: 1 to 3 ×10⁻⁶ cm/s
CLint scaled at 0.5 µM [2]: > 1000 L/h/kg
Structure (SMILES): CN(C)[C@H]1CN(Cc2c(F)cccc2Br)C[C@@H]1c1cn(C)c2ccccc12 (racemic)
IC50 (Pfeiffer): 9500 nM

Ki (Polycomb protein EED [1]): 5.3 nM
CL free (Liver): 276 L/h/kg
Structure (SMILES): Cc1cccc(F)c1CN1C[C@H](c2cn(CC(=O)N(C)C)c3ncccc23)[C@@H](N(C)C)C1 (racemic)

Ki (Polycomb protein EED [1]): 56 nM
CL free (Liver): 1300 L/h/kg
Structure (SMILES): Cc1cccc(F)c1CN1C[C@H](c2ccccc2)[C@@H](N(C)C)C1 (racemic)

Ki (Polycomb protein EED [1]): 2.6 nM
CL free (Liver): 170 L/h/kg
Structure (SMILES): CC(=O)N1CCN(c2ccc([C@H]3CN(Cc4c(C)cccc4F)C[C@@H]3N(C)C)cc2)CC1 (racemic)

Ki (Polycomb protein EED [1]): > 50000 nM
Structure (SMILES): CCn1cc(CN2C[C@H](c3cn(C)c4ccccc34)[C@@H](N(C)C)C2)c(C)n1 (racemic)

Ki (Polycomb protein EED [1]): 78 nM
Structure (SMILES): CN(C)[C@H]1CN([C@H]2CCCc3ccccc32)C[C@@H]1c1cn(C)c2ccccc12 (racemic)

Ki (Polycomb protein EED [1]): 78 nM
Structure (SMILES): CN(C)[C@H]1CN(Cc2c(F)cccc2Br)C[C@@H]1c1ccccc1 (racemic)

Ki (Polycomb protein EED [1]): 230 nM
Structure (SMILES): CN(C)[C@H]1CN(Cc2c(F)cccc2Br)C[C@@H]1C1CCCCC1 (racemic)

Ki (Polycomb protein EED [1]): 71 nM
Structure (SMILES): CN(C)[C@H]1CN(Cc2c(F)cccc2Br)C[C@@H]1C1CC1 (racemic)

Ki (Polycomb protein EED [1]): > 50000 nM
Structure (SMILES): CN(C)[C@H]1CN(Cc2ccn3ccnc3c2)C[C@@H]1c1cn(C)c2ccccc12 (racemic)

Ki (Polycomb protein EED [1]): 45 nM
Structure (SMILES): CN(C)[C@H]1CN([C@H]2CCc3ccccc32)C[C@@H]1c1cn(C)c2ccccc12 (racemic)

Ki (Polycomb protein EED [1]): 18 nM
CL free (Liver): 97 L/h/kg
Structure (SMILES): Cc1cccc(F)c1CN1C[C@H](c2ccc(C(=O)N(C)C)cc2)[C@@H](N(C)C)C1 (racemic)

Structure (SMILES): CN(C)[C@H]1CN(Cc2c(F)cccc2Cl)C[C@@H]1c1cn(C)c2ccccc12 (racemic)
Ki (Polycomb protein EED [1]): 53 nM
IC50 (Polycomb protein EED [3]): 6900 nM
IC50 (Polycomb protein EED [4]): > 10000 nM
IC50 (Pfeiffer): 3300 nM
Papp [5]: 1 to 3 ×10⁻⁶ cm/s
CLint scaled at 0.5 µM [2]: > 1000 L/h/kg

Ki (Polycomb protein EED [1]): 380 nM
Structure (SMILES): C[C@H]1CN(Cc2c(F)cccc2Br)C[C@@H]1N(C)C (racemic)

Ki (Polycomb protein EED [1]): 1500 nM
CLint scaled at 0.5 µM [2]: > 1000 L/h/kg
Structure (SMILES): CN(C)[C@H]1CN(Cc2ccccc2)C[C@@H]1c1cn(C)c2ccccc12 (racemic)

Ki (Polycomb protein EED [1]): 330 nM
CLint scaled at 0.5 µM [2]: > 1000 L/h/kg
Structure (SMILES): CN(C)[C@H]1CN(Cc2ccccc2F)C[C@@H]1c1cn(C)c2ccccc12 (racemic)

Ki (Polycomb protein EED [1]): 160 nM
CLint scaled at 0.5 µM [2]: > 1000 L/h/kg
Structure (SMILES): Cc1ccc(F)c(CN2C[C@H](c3cn(C)c4ccccc34)[C@@H](N(C)C)C2)c1 (racemic)

Ki (Polycomb protein EED [1]): 59 nM
Structure (SMILES): CN(C)[C@H]1CN(Cc2c(F)cccc2Br)C[C@@H]1C1CCOCC1 (racemic)

Ki (Polycomb protein EED [1]): > 50000 nM
Structure (SMILES): Cc1nc2ncccn2c1CN1C[C@H](c2cn(C)c3ccccc23)[C@@H](N(C)C)C1 (racemic)
